Where two headings read alike, the source gives them in different places.
What was measured:
[1] = tested on: SGC-7901 human gastric adenocarcinoma cancer cell line; experiment: MTT in vitro antitumor (antiproliferative) assay, SGC-7901; type: cell-based; conditions: for IC50: Homo sapiens, read-out: IC50 SGC-7901; for fold greater antiproliferative activity (lower IC50) than irinotecan, SGC-7901 cells: IC50 ratio vs irinotecan
Protocol: (§1) The in vitro antitumor activities were evaluated on human cancer cell lines SGC-7901 and HeLa by the MTT assay, using irinotecan as the reference compound.
(§2) The in vitro antitumor activity was evaluated on two human cancer cell lines with the MTT method. SGC-7901 is a human gastric adenocarcinoma cancer cell line and HeLa is a human cervical carcinoma cell line. Cells were provided by the Jilin Province Tumor Institute. Cells were maintained in IMDM medium supplemented with 10% fetal calf serum, 2 mM glutamine, 100 U/mL penicillin, and 100 μg/mL streptomycin, at 37 °C in a humidified atmosphere containing 5% CO2. The human cancer lines SGC-7901 and HELA at a concentration of […] were incubated in a 96-well microtiter plate (100 μL in every well) for 24 h (37 °C, 5%CO2). Then the cells were incubated continuously for 72 h following various concentrations of test drugs were added. The concentrations are 50 μM, 10 μM, 2 μM, 0.4 μM, 0.08 μM, 0.016 μM, 0.0032 μM, respectively. After the 100 μL 0.05% MTT solution was added to each well, the plate was incubated for a further 4 h before removal of medium, the media removed. Formazan crystals were dissolved with 100 μL DMSO, then the absorbance was detected at 490 nm.

[2] = tested on: HeLa human cervical carcinoma cell line; experiment: MTT in vitro antitumor (antiproliferative) assay, HeLa; type: cell-based
Protocol: as §1, §2

[3] = Chemical stability of the prodrugs in PBS (HPLC); type: physicochemical; conditions: for Remaining Prodrugs 1 h pH 4.6 / Remaining Prodrugs 12 h pH 4.6: PBS pH 4.6, 37 °C; for Remaining Prodrugs 1 h pH 7.4 / Remaining Prodrugs 12 h pH 7.4: PBS pH 7.4, 37 °C
Protocol: They were stable at pH 4.6 at 37 °C for 12 h. Except for compound 5h, less than 35% of the prodrugs remained after incubation for 12 h in pH 7.4 buffer. […] For example, less than 30% of the prodrugs 7a–f remained, while more than 85% of the prodrugs 5a–h remained after incubation for 1 h in pH 7.4 buffer.
The stability of all compounds was investigated in PBS and human plasma by HPLC using a C18 analytical column. The mobile phase was composed of water and acetonitrile at a ratio of 70:30, respectively, containing 1% trifluoroacetic acid. The amount of the compound and its metabolite SN-38 were flowed at the rate of 0.8 mL·min^−1 and detected by the UV wavelength of 370 nm. Stability test in PBS: each compound was dissolved in PBS (pH 7.4 and pH 4.6), incubated at 37 °C and analyzed at 1, 3, 6, 12 h. Stability test in plasma: The test compounds were dissolved in DMSO and diluted to 1 mM by 0.9% physiological saline. Forty μL of each solution was added into plasma with a final concentration of 0.1 mM. The mixture was incubated in a 37 °C water bath following the vigorous vortex mixing for 15 s. Samples were analyzed at 1, 3, 6, 12 h. 400 μL of cold acetonitrile (containing 1% trifluoroacetic acid) was added to each sample, vortex-mixed for 15 s and centrifuged at 3500 rpm for 15 min at 4 °C.

AChE from electric eel = AChE from electric eel (Electrophorus electricus, UniProt O42275); experiment: AChE inhibition assay (modified Ellman method); type: biochemical; conditions: phosphate buffer pH 7.3, 37 °C
Description: Irinotecan has been reported to be a potent inhibiter of AChE, and inhibition of this enzyme causes acute cholinergic diarrhea. Unlike irinotecan, the compounds we assayed were only weak inhibitors of AChE. […] One possible explanation is that the active site of AChE is present at the bottom of a gorge that is lined with hydrophobic amino acid residues. The terminal dipiperidino moiety in CPT-11 that interacts with amino acid residues within AChE plays a major role in enzyme inhibition, which has been confirmed by X-ray crystallographic studies.
The AChE inhibition by all compounds was studied according to a modification of the method of Ellman et al.. The activity was assayed with AChE from electric eel in the presence or absence of the test compounds in phosphate buffer (pH7.3). After the incubation at 37 °C for 1 min, 0.38 mM 5,5-dithiobisnitrobenzoic acid and 0.56 mM ATCh were added to the buffer. The changes in absorbance were read at 412 nm, per 15 s intervals for 3 min by a spectrophotometer (UV-2500, Shimadzu Corp., Kyoto, Japan).

[4] = tested on: human colon adenocarcinoma SW1116 xenografts; experiment: Tumor growth inhibition in human colon adenocarcinoma SW1116 xenografts in nude mice; type: in vivo; conditions: 60 mg/kg; for Tumor Weight / Inhibitory Rate: injection in the tumor section once per day for 6 days; for Tumor Weight: SW1116 xenograft nude mice, x ± SD; for Inhibitory Rate: day 6, vs vehicle; for Body Weight Change: once per day for 6 days, nude mice
Protocol: The antitumor activity of 5e, compared with CPT-11 and SN-38, was investigated in human colon adenocarcinoma SW1116 xenografts in nude mice. The model animals were divided into four experimental groups, eight animals per group. Tested compouds were each administered by injection in the tumor section once per day for contiguous 6 days. The injection doses of test compound 5e, CPT-11, and SN-38 were 60 mg/kg, respectively. Using the vehicle group as the control, we tested the inhibitory activities of these compounds for 6 days and measured the changes in body weight and tumor size every 2 days. […] No toxic death occurred after drug treatment, and the body weight losses induced by 5e, CPT-11, and SN-38 at the given dose were similar.

[5] = design: method as in PMID 11716702, PMID 15217940, PMID 19495753; conditions: cited from earlier work

Chain of AChE from electric eel (O42275 24-633): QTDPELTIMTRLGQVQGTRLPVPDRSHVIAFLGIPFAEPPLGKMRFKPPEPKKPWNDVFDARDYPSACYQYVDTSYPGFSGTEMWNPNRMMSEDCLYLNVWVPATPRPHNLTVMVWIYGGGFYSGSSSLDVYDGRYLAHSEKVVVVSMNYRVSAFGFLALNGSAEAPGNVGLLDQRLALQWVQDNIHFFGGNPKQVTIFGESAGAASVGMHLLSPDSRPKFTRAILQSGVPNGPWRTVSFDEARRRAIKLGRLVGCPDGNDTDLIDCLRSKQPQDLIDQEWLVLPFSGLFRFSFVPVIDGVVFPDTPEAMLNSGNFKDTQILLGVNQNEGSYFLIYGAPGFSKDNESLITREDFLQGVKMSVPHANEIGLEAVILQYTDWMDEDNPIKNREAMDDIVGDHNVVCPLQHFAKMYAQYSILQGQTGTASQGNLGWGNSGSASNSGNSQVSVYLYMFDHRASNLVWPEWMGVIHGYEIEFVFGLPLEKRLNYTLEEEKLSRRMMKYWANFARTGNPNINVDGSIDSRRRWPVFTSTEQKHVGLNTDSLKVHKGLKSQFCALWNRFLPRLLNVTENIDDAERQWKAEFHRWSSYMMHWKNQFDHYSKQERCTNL

| Compound | IC50 ([1]; SGC-7901, 72 h) | IC50 ([2]; 72 h, read-out: IC50 HeLa) | Remaining Prodrugs 1 h pH 4.6 [3] | Remaining Prodrugs 12 h pH 4.6 [3] | Remaining Prodrugs 1 h pH 7.4 [3] | Remaining Prodrugs 12 h pH 7.4 [3] | IC50 (AChE from electric eel; AChE IC50, electric eel AChE) | further results |
| --- | --- | --- | --- | --- | --- | --- | --- | --- |
| CCc1c2c(nc3ccc(OC(=O)NCC(=O)N[C@@H](CC(=O)O)C(=O)O)cc13)-c1cc3c(c(=O)n1C2)COC(=O)[C@]3(O)CC [Compound 7b, 10-OCO-(L-Asp-Gly-OH)-SN-38] | 610 ± 680 nM | 14.8 nM | 100% | 96.9% | 17.6% | 0% |  |  |
| CCc1c2c(nc3ccc(OC(=O)NCC(=O)O)cc13)-c1cc3c(c(=O)n1C2)COC(=O)[C@]3(O)CC [Compound 5a, 10-OCO-(Gly-OH)-SN-38] | 2690 ± 110 nM | 30.4 nM | 100% | 98.4% | 85.3% | 14.8% | 19800 nM |  |
| CCc1c2c(nc3ccc(OC(=O)NCC(=O)NC(CCC(=O)O)C(=O)O)cc13)-c1cc3c(c(=O)n1C2)COC(=O)[C@]3(O)CC (stereo partly drawn) [Compound 7c, 10-OCO-(Glu-Gly-OH)-SN-38] | 200 ± 70 nM | < 3.2 nM | 100% | 96.4% | 29.4% | 0% | > 100000 nM | fold greater antiproliferative activity (lower IC50) than irinotecan, SGC-7901 cells [1]: 30 fold |
| CCc1c2c(nc3ccc(OC(=O)NC(CCC(=O)O)C(=O)O)cc13)-c1cc3c(c(=O)n1C2)COC(=O)[C@]3(O)CC (stereo partly drawn) [Compound 5d, 10-OCO-(Glu-OH)-SN-38] |  |  | 98.1% | 92.5% | 85.2% | 8.6% |  |  |
| CCc1c2c(nc3ccc(OC(=O)NC(C(=O)O)C(C)C)cc13)-c1cc3c(c(=O)n1C2)COC(=O)[C@]3(O)CC (stereo partly drawn) [Compound 5c, 10-OCO-(Val-OH)-SN-38] | 1880 ± 720 nM | 5.61 nM |  |  |  |  |  |  |
| CCc1c2c(nc3ccc(OC(=O)NC(C(=O)O)C(C)CC)cc13)-c1cc3c(c(=O)n1C2)COC(=O)[C@]3(O)CC (stereo partly drawn) [Compound 5f, 10-OCO-(Ile-OH)-SN-38] | 760 ± 340 nM | 3.64 nM |  |  |  |  | 1360 nM |  |
| CCc1c2c(nc3ccc(OC(=O)NC(CC(C)C)C(=O)O)cc13)-c1cc3c(c(=O)n1C2)COC(=O)[C@]3(O)CC (stereo partly drawn) [Compound 5e, 10-OCO-(Leu-OH)-SN-38] | 500 ± 190 nM | 1.82 nM |  |  |  |  |  | Tumor Weight [4]: 0.17 ± 0.05 g/10g |
| CCc1c2c(nc3ccc(OC(=O)N[C@@H](CC(=O)O)C(=O)O)cc13)-c1cc3c(c(=O)n1C2)COC(=O)[C@]3(O)CC [Compound 5h, 10-OCO-(D-Asp-OH)-SN-38] | 240 nM | < 3.2 nM | 100% | 94.5% | 93.4% | 52.2% | 7430 nM | fold greater antiproliferative activity (lower IC50) than irinotecan, SGC-7901 cells [1]: 30 fold |
| CCc1c2c(nc3ccc(O)cc13)-c1cc3c(c(=O)n1C2)COC(=O)[C@]3(O)CC [SN-38, 7-ethyl-10-hydroxycamptothecin] |  |  |  |  |  |  |  | Tumor Weight [4]: 0.32 ± 0.12 g/10g; Inhibitory Rate [4]: 8.6% |
| CCc1c2c(nc3ccc(OC(=O)NC(C)C(=O)NC(CCC(=O)O)C(=O)O)cc13)-c1cc3c(c(=O)n1C2)COC(=O)[C@]3(O)CC (stereo partly drawn) [Compound 7f, 10-OCO-(Glu-Ala-OH)-SN-38] | 270 ± 180 nM | 1.57 nM | 100% | 94.7% | 14.4% | 0% | 36100 nM | fold greater antiproliferative activity (lower IC50) than irinotecan, SGC-7901 cells [1]: 30 fold; IC50 ([2]; 72 h, read-out: IC50 against HeLa cells): < 3.2 nM |
| CCc1c2c(nc3ccc(OC(=O)N4CCC(N5CCCCC5)CC4)cc13)-c1cc3c(c(=O)n1C2)COC(=O)[C@]3(O)CC [Irinotecan, 7-ethyl-10-[4-(1-piperidino)-1-piperidino]-carbonyloxycamptothecin] |  |  |  |  |  |  |  | IC50 ([1]; SGC-7901, MTT, 72 h incubation): 7380 ± 1240 nM; IC50 ([2]; MTT, 72 h incubation, read-out: IC50 HeLa): 1320 ± 130 nM; IC50 (AChE from electric eel; electric eel AChE, read-out: AChE IC50): 200 nM; Tumor Weight [4]: 0.17 ± 0.04 g/10g; Inhibitory Rate [4]: 51%; Body Weight Change [4]: -3.10 g; Body Weight Change ([4]; listed as CPT-11): similar; bioconversion efficiency from irinotecan to the active form SN-38 [5]: 4%–5% |
| CCc1c2c(nc3ccc(OC(=O)NC(C)C(=O)O)cc13)-c1cc3c(c(=O)n1C2)COC(=O)[C@]3(O)CC (stereo partly drawn) [Compound 5b, 10-OCO-(Ala-OH)-SN-38] | 1750 ± 600 nM | 9.85 nM |  |  |  |  |  |  |
| CCc1c2c(nc3ccc(OC(=O)NC(C)C(=O)N[C@H](CC(=O)O)C(=O)O)cc13)-c1cc3c(c(=O)n1C2)COC(=O)[C@]3(O)CC (stereo partly drawn) [Compound 7d, 10-OCO-(D-Asp-Ala-OH)-SN-38] | 260 ± 640 nM | < 3.2 nM | 100% | 95.5% | 26.3% | 0% | 4440 nM | fold greater antiproliferative activity (lower IC50) than irinotecan, SGC-7901 cells [1]: 30 fold |
| CCc1c2c(nc3ccc(OC(=O)NCC(=O)N[C@H](CC(=O)O)C(=O)O)cc13)-c1cc3c(c(=O)n1C2)COC(=O)[C@]3(O)CC [Compound 7a, 10-OCO-(D-Asp-Gly-OH)-SN-38] | 1040 ± 900 nM | < 3.2 nM | 100% | 96.8% | 26.0% | 0% | 116000 nM |  |
| CCc1c2c(nc3ccc(OC(=O)N[C@H](CC(=O)O)C(=O)O)cc13)-c1cc3c(c(=O)n1C2)COC(=O)[C@]3(O)CC [Compound 5g, 10-OCO-(L-Asp-OH)-SN-38] | 980 ± 50 nM | 9.07 nM | 100% | 94.5% | 93.9% | 34.1% | 3080 nM |  |
| CCc1c2c(nc3ccc(OC(=O)NC(C)C(=O)N[C@@H](CC(=O)O)C(=O)O)cc13)-c1cc3c(c(=O)n1C2)COC(=O)[C@]3(O)CC (stereo partly drawn) [Compound 7e, 10-OCO-(L-Asp-Ala-OH)-SN-38] | 210 ± 550 nM | 12.9 nM | 100% | 94.5% | 23.4% | 0% |  |  |

From article PMC6270839, “Synthesis and Biological Evaluation of Novel 10-Substituted-7-ethyl-10-hydroxycamptothecin (SN-38) Prodrugs” (Molecules, 2014)
